Test results published in ChEMBL document CHEMBL1201862, “PubChem BioAssay data set” (2004).
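Method: 48-hour compound exposure of cells in 96-well plates, five concentrations, linear interpolation of endpoints. GI50 is the concentration that inhibits growth by half.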 Activity calls are given as the source filed them. Cut-off read from the data, not from the text of the source: active = GI50 up to about 1.1 µM and inactive = higher.

Legend:
Test in all cases: inhibition of tumour cell growth, NCI panel, 48 h
[1] = system: IGROV-1
[2] = system: BT-549
[3] = system: UACC-62
[4] = system: SF-539
[5] = system: ACHN
[6] = system: NCI-H226
[7] = system: HOP-62
[8] = system: SW-620
[9] = system: HT-29
[10] = system: COLO 205
[11] = system: MOLT-4
[12] = system: RXF 393
[13] = system: SK-OV-3
[14] = system: LOX IMVI
[15] = system: MDA-N
[16] = system: SN12C
[17] = system: OVCAR-5
[18] = system: SK-MEL-28
[19] = system: OVCAR-4
[20] = system: HCC 2998

| SMILES | GI50 [1] | GI50 [2] | GI50 [3] | GI50 [4] | GI50 [5] | GI50 [6] | GI50 [7] | GI50 [8] | GI50 [9] | GI50 [10] | GI50 [11] | GI50 [12] | GI50 [13] | GI50 [14] | GI50 [15] | GI50 [16] | GI50 [17] | GI50 [18] | GI50 [19] | GI50 [20] |
| --- | --- | --- | --- | --- | --- | --- | --- | --- | --- | --- | --- | --- | --- | --- | --- | --- | --- | --- | --- | --- |
| O=C(O)c1ccc(CNCc2ccccc2)cc1 | > 100 µM (inactive) | > 100 µM (inactive) | > 100 µM (inactive) | > 100 µM (inactive) | > 100 µM (inactive) | > 100 µM (inactive) | > 100 µM (inactive) | > 100 µM (inactive) | > 100 µM (inactive) | > 100 µM (inactive) | > 100 µM (inactive) | > 100 µM (inactive) | > 100 µM (inactive) | > 100 µM (inactive) | > 100 µM (inactive) | > 100 µM (inactive) | > 100 µM (inactive) | > 100 µM (inactive) | > 100 µM (inactive) | – |
| C1COCCOP2(N3CC3)=NP(N3CC3)(=NP(N3CC3)(N3CC3)=N2)OCCOCCO1 (stereo not given) | > 100 µM (inactive) | > 100 µM (inactive) | > 100 µM (inactive) | > 100 µM (inactive) | > 100 µM (inactive) | > 100 µM (inactive) | > 100 µM (inactive) | > 100 µM (inactive) | > 100 µM (inactive) | > 100 µM (inactive) | > 100 µM (inactive) | > 100 µM (inactive) | > 100 µM (inactive) | 25.4 µM (inactive) | > 100 µM (inactive) | > 100 µM (inactive) | > 100 µM (inactive) | – | > 100 µM (inactive) | – |
| Cc1ccc(-n2cc(-c3ccc(Cl)cc3)c(C#N)c2N)cc1 | 15.9 µM (inactive) | 18.2 µM (inactive) | 15.1 µM (inactive) | 16.6 µM (inactive) | 18.7 µM (inactive) | 12.8 µM (inactive) | 17.9 µM (inactive) | 13.2 µM (inactive) | 14 µM (inactive) | 14.1 µM (inactive) | – | 10.5 µM (inactive) | 20.7 µM (inactive) | 15 µM (inactive) | 18.5 µM (inactive) | 14.8 µM (inactive) | 15.1 µM (inactive) | 18.1 µM (inactive) | 14.3 µM (inactive) | 14.9 µM (inactive) |
| COc1cnc2cc(C(=O)O)c3c([N+](=O)[O-])cccc3c2c1 | > 100 µM (inactive) | > 100 µM (inactive) | > 100 µM (inactive) | – | > 100 µM (inactive) | > 100 µM (inactive) | > 100 µM (inactive) | > 100 µM (inactive) | > 100 µM (inactive) | > 100 µM (inactive) | > 100 µM (inactive) | > 100 µM (inactive) | > 100 µM (inactive) | > 100 µM (inactive) | > 100 µM (inactive) | > 100 µM (inactive) | > 100 µM (inactive) | > 100 µM (inactive) | > 100 µM (inactive) | > 100 µM (inactive) |
| CCN(CC)CCNc1ccc2ncn3c4c(OC)ccc(O)c4c(=O)c1c23 | 5.56 µM (inactive) | 37.3 µM (inactive) | 35.7 µM (inactive) | 6.98 µM (inactive) | 5.94 µM (inactive) | 45.8 µM (inactive) | 15.4 µM (inactive) | 3.09 µM (inactive) | 7.4 µM (inactive) | 5.87 µM (inactive) | 0.625 µM (active) | 5.85 µM (inactive) | 66.2 µM (inactive) | – | 21.1 µM (inactive) | 4.82 µM (inactive) | 42.4 µM (inactive) | 12.3 µM (inactive) | 6.21 µM (inactive) | 5.25 µM (inactive) |
| CC1CN(CCO)CCN1c1ccccc1 (stereo not given) | > 100 µM (inactive) | > 100 µM (inactive) | > 100 µM (inactive) | > 100 µM (inactive) | > 100 µM (inactive) | > 100 µM (inactive) | > 100 µM (inactive) | > 100 µM (inactive) | > 100 µM (inactive) | > 100 µM (inactive) | 1.41 µM (inactive) | > 100 µM (inactive) | > 100 µM (inactive) | > 100 µM (inactive) | > 100 µM (inactive) | > 100 µM (inactive) | > 100 µM (inactive) | > 100 µM (inactive) | > 100 µM (inactive) | – |
| O=c1[nH]c(=O)n(C2OC(CO)C(O)C2O)c2ccsc12 (stereo not given) | > 100 µM (inactive) | > 100 µM (inactive) | – | > 100 µM (inactive) | > 100 µM (inactive) | > 100 µM (inactive) | > 100 µM (inactive) | > 100 µM (inactive) | > 100 µM (inactive) | > 100 µM (inactive) | > 100 µM (inactive) | > 100 µM (inactive) | – | > 100 µM (inactive) | > 100 µM (inactive) | > 100 µM (inactive) | > 100 µM (inactive) | > 100 µM (inactive) | > 100 µM (inactive) | > 100 µM (inactive) |
| C/C(=N\Nc1nc2ccccc2s1)c1cnccn1 | 0.406 µM (active) | 11.1 µM (inactive) | 3.88 µM (inactive) | 5.24 µM (inactive) | 0.397 µM (active) | 0.247 µM (active) | 2.75 µM (inactive) | 0.505 µM (active) | 0.175 µM (active) | 0.344 µM (active) | 0.461 µM (active) | 12.7 µM (inactive) | 2.08 µM (inactive) | – | 11.4 µM (inactive) | 1.08 µM (active) | 3.33 µM (inactive) | 9.66 µM (inactive) | 16.7 µM (inactive) | 7.21 µM (inactive) |
| N#Cc1c(O)n(-c2ccccc2)c(=O)c2c(N)n[nH]c12 | > 100 µM (inactive) | > 100 µM (inactive) | 31.3 µM (inactive) | > 100 µM (inactive) | – | > 100 µM (inactive) | – | 64.9 µM (inactive) | > 100 µM (inactive) | > 100 µM (inactive) | > 100 µM (inactive) | > 100 µM (inactive) | > 100 µM (inactive) | 21.5 µM (inactive) | > 100 µM (inactive) | > 100 µM (inactive) | > 100 µM (inactive) | > 100 µM (inactive) | > 100 µM (inactive) | > 100 µM (inactive) |
| CN(C)C(Cc1c[nH]cn1)C(=O)N1CCCC1C(N)=O (stereo not given) | > 100 µM (inactive) | > 100 µM (inactive) | > 100 µM (inactive) | – | > 100 µM (inactive) | > 100 µM (inactive) | > 100 µM (inactive) | > 100 µM (inactive) | > 100 µM (inactive) | > 100 µM (inactive) | > 100 µM (inactive) | > 100 µM (inactive) | > 100 µM (inactive) | > 100 µM (inactive) | > 100 µM (inactive) | > 100 µM (inactive) | > 100 µM (inactive) | > 100 µM (inactive) | > 100 µM (inactive) | > 100 µM (inactive) |
| O[C@@H]1C=C[C@]23CCN(Cc4cc5c(cc42)OCO5)[C@@H]3C1 | 44.3 µM (inactive) | > 100 µM (inactive) | > 100 µM (inactive) | > 100 µM (inactive) | 35.2 µM (inactive) | > 100 µM (inactive) | 92 µM (inactive) | 49 µM (inactive) | 51.5 µM (inactive) | 44.8 µM (inactive) | 61.1 µM (inactive) | 20.8 µM (inactive) | > 100 µM (inactive) | 48.4 µM (inactive) | 69.3 µM (inactive) | 32.7 µM (inactive) | > 100 µM (inactive) | > 100 µM (inactive) | 34 µM (inactive) | – |
| S=C1NCN2CCN(CC2)CNC(=S)C(=S)NCN2CCN(CC2)CNC1=S | 64.3 µM (inactive) | 59 µM (inactive) | 67.8 µM (inactive) | – | 72.1 µM (inactive) | > 100 µM (inactive) | 37.9 µM (inactive) | 30.4 µM (inactive) | 85.5 µM (inactive) | 35.6 µM (inactive) | – | 56 µM (inactive) | > 100 µM (inactive) | 22.3 µM (inactive) | 67.8 µM (inactive) | 44.5 µM (inactive) | > 100 µM (inactive) | > 100 µM (inactive) | > 100 µM (inactive) | 78.5 µM (inactive) |
| CN(N=O)C(=O)N[C@H]1C(O)O[C@H](CO)[C@@H](O)[C@@H]1O (stereo not given in full) | 618 µM (inactive) | > 750 µM (inactive) | 550 µM (inactive) | 612 µM (inactive) | > 750 µM (inactive) | 596 µM (inactive) | 568 µM (inactive) | 511 µM (inactive) | 618 µM (inactive) | 596 µM (inactive) | 558 µM (inactive) | 600 µM (inactive) | 571 µM (inactive) | – | > 750 µM (inactive) | 581 µM (inactive) | 647 µM (inactive) | 611 µM (inactive) | 590 µM (inactive) | 533 µM (inactive) |
| Cc1cc(C)c(C2=NOC(c3ccccc3)(c3cc(=O)n(-c4ccccc4)s3)O2)c(C)c1 (stereo not given) | 37.1 µM (inactive) | 24.8 µM (inactive) | 23.2 µM (inactive) | – | 24.2 µM (inactive) | 31.5 µM (inactive) | 33.2 µM (inactive) | 26.4 µM (inactive) | 18.8 µM (inactive) | 23.6 µM (inactive) | 41.9 µM (inactive) | 17.3 µM (inactive) | > 100 µM (inactive) | 15.8 µM (inactive) | 38.8 µM (inactive) | 33 µM (inactive) | 18 µM (inactive) | 32 µM (inactive) | 53.1 µM (inactive) | 32.5 µM (inactive) |
| Cc1ccc(/N=N/c2cc(=O)[nH]c(=O)[nH]2)cc1C | 13.9 µM (inactive) | 13.7 µM (inactive) | – | 11.2 µM (inactive) | 11 µM (inactive) | 19.1 µM (inactive) | 17.7 µM (inactive) | 4.03 µM (inactive) | 1.97 µM (inactive) | 7.76 µM (inactive) | 3.94 µM (inactive) | 5.04 µM (inactive) | – | 1.71 µM (inactive) | 12.2 µM (inactive) | 4.74 µM (inactive) | 15.4 µM (inactive) | 15.6 µM (inactive) | 13.9 µM (inactive) | 5.01 µM (inactive) |
